Assay results published in PubChem BioAssay (NCI).
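The compound was tested at five concentrations on cells cultured in 96-well plates, with a 48-hour exposure period. GI50 marks 50% less growth. TGI: total growth inhibition.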

Columns and labels:
Assay in all cases: inhibition of tumour cell growth, NCI panel, 48 h
[1] = tested on: DLD-1 colon
[2] = tested on: U251 CNS
[3] = tested on: SK-OV-3 ovarian
[4] = tested on: NCI-H23 lung
[5] = tested on: LXFL 529 NSCLC
[6] = tested on: CCRF-CEM leukemia
[7] = tested on: NCI-H522 lung
[8] = tested on: SR leukemia
[9] = tested on: K-562 leukemia
[10] = tested on: LOX IMVI melanoma
[11] = tested on: DMS 114 small cell lung
[12] = tested on: M19-MEL melanoma

SMILES | TGI [1] [µM] | TGI [2] [µM] | TGI [3] [µM] | TGI [4] [µM] | TGI [5] [µM] | TGI [6] [µM] | TGI [7] [µM] | TGI [8] [µM] | TGI [9] [µM] | TGI [10] [µM] | TGI [11] [µM] | TGI [12] [µM] | GI50 [2] [µM] | GI50 [3] [µM] | GI50 [4] [µM] | GI50 [6] [µM] | GI50 [7] [µM] | GI50 [8] [µM] | GI50 [9] [µM] | GI50 [10] [µM]
O=C1OC(=O)C([Se]c2ccccc2)=C1[Se]c1ccccc1 | > 100 | > 100 | > 100 | > 100 | > 100 | > 100 | > 100 | > 100 | > 100 | > 100 | > 100 | – | – | – | – | – | – | – | – | –
CCCCC1(C(NC(=O)c2ccccc2Cl)c2ccncc2)C(=O)N(c2ccccc2)N(c2ccccc2)C1=O (stereo not drawn) | > 100 | > 100 | > 100 | > 100 | > 100 | > 100 | > 100 | 93.9 | > 100 | > 100 | > 100 | > 100 | – | – | – | – | – | – | – | –
O=c1[nH]cnc2n[nH]nc12 | – | > 100 | > 25.2 | > 100 | > 100 | > 100 | 53.3 | > 52.7 | > 100 | > 49 | 56.1 | > 79.9 | – | – | – | – | – | – | – | –
COc1ccccc1C(=O)N(Cc1ccccc1)c1ccc(Cl)c(C(=O)OC(C)C)c1 | > 100 | > 100 | > 91.7 | > 82.8 | > 100 | > 100 | 18.3 | – | > 100 | > 100 | 56 | > 100 | – | – | – | – | – | – | – | –
Cc1ccc(OC(=O)N2C/C(=C\c3ccccc3)C(=O)/C(=C/c3ccccc3)C2)cc1 | 28.1 | 38.6 | 86.2 | 87.9 | 30.6 | 16.3 | 33.8 | 13.2 | > 51.7 | 9.71 | 59.4 | 18.9 | – | – | – | – | – | – | – | –
CNC(=O)OCc1nc(SC)n(C)c1COC(=O)NC | 494 | 599 | 525 | 329 | – | 494 | 246 | 473 | 508 | 364 | 199 | 369 | – | – | – | – | – | – | – | –
O=C1C(=O)C2(CC1S(=O)(=O)c1ccccc1)c1ccccc1-c1ccccc12 (stereo not drawn) | 66.1 | 34.3 | > 100 | 30.2 | 31 | 58.2 | 43.1 | 50 | 59.3 | 34.5 | 53.3 | – | – | – | – | – | – | – | – | –
Cc1ccc(S(=O)C(C)C(Cl)c2ccccc2)cc1 (stereo not drawn) | > 100 | > 100 | > 100 | > 100 | > 100 | > 100 | > 100 | > 100 | > 100 | > 100 | > 100 | > 100 | – | – | – | – | – | – | – | –
COc1ccc(/C=N/NS(=O)(=O)c2ccccc2)cc1 | > 100 | > 100 | > 100 | > 100 | > 100 | > 100 | – | > 100 | > 100 | > 100 | > 100 | > 100 | – | – | – | – | – | – | – | –
COc1ccc(Br)c(C(=O)N2CCc3ccccc32)c1N | > 100 | > 100 | 80.2 | > 100 | > 100 | > 100 | 36.8 | 79.1 | > 100 | > 100 | 79.4 | > 100 | – | – | – | – | – | – | – | –
CC(O)[C@H](NC(=O)N[C@@H](CC(N)=O)c1nc(N2CCNCC2)no1)C(=O)O (stereo partly drawn) | – | > 100 | > 100 | > 100 | – | > 100 | > 100 | > 100 | > 100 | > 100 | – | – | > 100 | > 100 | > 100 | > 100 | > 100 | > 100 | > 100 | > 100
O=C(O)c1ccccc1NCn1c(=S)sc2ccccc21 | – | > 100 | > 100 | 63.4 | – | 52.2 | 78.3 | 81.6 | > 100 | 43.4 | – | – | – | – | – | – | – | – | – | –
